From patent publication US20260347364A1, “PYRAZOLO[4,3-F]QUINAZOLINE DERIVATIVES AS MODULATORS OF G12D MUTANT KRAS USEFUL FOR THE TREATMENT OF CANCER” (JAZZ PHARMACEUTICALS IRELAND LTD., priority 2023, published 2026)

Experiments:
[1] = target: T1, KRAS G12D (Homo sapiens, UniProt P01116, G12D); experiment: HTRF nucleotide exchange assay, KRAS G12D; assay type: biochemical; settings: HTRF nucleotide exchange assay (NEA), class symbols
T1 construct: aa1-188 KRAS WT, HRAS WT, NRAS WT, or KRAS containing the G12D

[2] = target: T2, KRAS WT (Homo sapiens, UniProt P01116); experiment: HTRF nucleotide exchange assay, KRAS WT; assay type: biochemical; settings: HTRF nucleotide exchange assay (NEA), class symbols
T2 construct: aa1-188 KRAS WT
T2 sequence (P01116 1-188 isoform P01116-2): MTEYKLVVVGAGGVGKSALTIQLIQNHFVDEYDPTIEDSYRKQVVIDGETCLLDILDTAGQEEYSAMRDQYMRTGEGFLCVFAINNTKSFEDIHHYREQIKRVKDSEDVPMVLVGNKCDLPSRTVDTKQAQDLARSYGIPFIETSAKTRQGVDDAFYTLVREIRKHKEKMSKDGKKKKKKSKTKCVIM

T1 sequence (P01116 1-188 isoform P01116-2 G12D): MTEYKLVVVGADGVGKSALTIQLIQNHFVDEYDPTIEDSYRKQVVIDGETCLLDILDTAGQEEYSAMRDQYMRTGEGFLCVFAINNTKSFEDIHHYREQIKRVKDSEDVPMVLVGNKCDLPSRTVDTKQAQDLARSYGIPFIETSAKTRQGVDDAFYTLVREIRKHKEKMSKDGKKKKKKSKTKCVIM

SMILES	IC50 [1]	IC50 [2]
CCc1c(F)ccc2cc(O)cc(-c3cc4nc(OC[C@@]56CCCN5C[C@H](F)C6)nc(N5CCCNCC5)c4c4cn(C)nc34)c12 [Example 20, 4-[9-(1,4-diazepan-1-yl)-2-methyl-7-[[(2R,8S)-2-fluoro-1,2,3,5,6,7-hexahydropyrrolizin-8-yl]methoxy]pyrazolo[4,3-f]quinazolin-4-yl]-5-ethyl-6-fluoro-naphthalen-2-ol]	≤ 10 nM	10 to 100 nM
CCc1c(F)ccc2cc(O)cc(-c3cc4nc(OC[C@@]56CCCN5C[C@H](F)C6)nc(N5CC6CCC(C5)N6)c4c4cn(C)nc34)c12 [Example 15]	≤ 10 nM	10 to 100 nM
CCc1c(F)ccc2cc(O)cc(-c3c(F)c4nc(OC[C@@]56CCCN5C[C@H](F)C6)nc(N5CCCn6nc(C(=O)N7CCOCC7)cc6C5)c4c4cn(C)nc34)c12 [Example 195, [5-[4-(8-ethyl-7-fluoro-3-hydroxy-1-naphthyl)-5-fluoro-7-[[(2R,8S)-2-fluoro-1,2,3,5,6,7-hexahydropyrrolizin-8-yl]methoxy]-2-methyl-pyrazolo[4,3-f]quinazolin-9-yl]-4,6,7,8-tetrahydropyrazolo[1,5-a][1,4]diazepin-2-yl]-morpholino-methanone]	≤ 10 nM	≤ 10 nM
C#Cc1c(F)ccc2cc(O)cc(-c3cc4nc(OC[C@@]56CCCN5C[C@H](F)C6)nc(N5CCCn6nc(C(=O)N(C)C)cc6C5)c4c4cn(C)nc34)c12 [Example 65, 5-[4-(8-ethynyl-7-fluoro-3-hydroxy-1-naphthyl)-2-methyl-7-[[(2R,8S)-2-fluoro-1,2,3,5,6,7-hexahydropyrrolizin-8-yl]methoxy]pyrazolo[4,3-f]quinazolin-9-yl]-N,N-dimethyl-4,6,7,8-tetrahydropyrazolo[1,5-a][1,4]diazepine-2-carboxamide]	≤ 10 nM	≤ 10 nM
CCc1c(F)ccc2cc(O)cc(-c3c(C)c4nc(OC[C@]5(C)CCCN5C)nc(N5CCC[C@@](C)(O)C5)c4c4cn(C)nc34)c12 [Example 234]	≤ 10 nM	10 to 100 nM
CCc1c(F)ccc2cc(O)cc(-c3cc4nc(OC[C@@]56CCCN5C[C@H](F)C6)nc(N5CCC(C)(O)CC5)c4c4cn(C)nc34)c12 [Example 118, 1-[4-(8-ethyl-7-fluoro-3-hydroxy-1-naphthyl)-2-methyl-7-[[(2R,8S)-2-fluoro-1,2,3,5,6,7-hexahydropyrrolizin-8-yl]methoxy]pyrazolo[4,3-f]quinazolin-9-yl]-4-methyl-piperidin-4-ol]	100 to 10000 nM	100 to 10000 nM
CCc1c(F)ccc2cc(O)cc(-c3c(C)c4nc(OCC5(CF)COC5)nc(N5CC6CCC5CN6)c4c4cn(C)nc34)c12 (centres unmarked) [Example 240, 4-[9-(2,5-diazabicyclo[2.2.2]octan-2-yl)-7-[[3-(fluoromethyl)oxetan-3-yl]methoxy]-2,5-dimethyl-pyrazolo[4,3-f]quinazolin-4-yl]-5-ethyl-6-fluoro-naphthalen-2-ol]	10 to 100 nM	100 to 10000 nM
CCc1c(F)ccc2cc(O)cc(-c3c(F)c4nc(OC[C@@]56CCCN5C[C@H](F)C6)nc(N5CCC(C#N)CC5)c4c4cn(C)nc34)c12 [Example 111, 1-[4-(8-ethyl-7-fluoro-3-hydroxy-1-naphthyl)-5-fluoro-2-methyl-7-[[(2R,8S)-2-fluoro-1,2,3,5,6,7-hexahydropyrrolizin-8-yl]methoxy]pyrazolo[4,3-f]quinazolin-9-yl]piperidine-4-carbonitrile]	10 to 100 nM	≤ 10 nM
CCc1c(F)ccc2cc(O)cc(-c3cc4nc(OC[C@@]56CCCN5C[C@H](F)C6)nc(N5CCCC(C)(OC)C5)c4c4cn(C)nc34)c12 (stereo partly drawn) [Example 131, 5-ethyl-6-fluoro-4-[9-(3-methoxy-3-methyl-1-piperidyl)-2-methyl-7-[[(2R,8S)-2-fluoro-1,2,3,5,6,7-hexahydropyrrolizin-8-yl]methoxy]pyrazolo[4,3-f]quinazolin-4-yl]naphthalen-2-ol]	10 to 100 nM	100 to 10000 nM
CCc1c(F)ccc2cc(O)cc(-c3c(F)c4nc(OCC5(CN6CC(C#N)C6)CC5)nc(N5CCOCC(C)(O)C5)c4c4cn(C)nc34)c12 (centres unmarked) [Example 171, 1-[[1-[[4-(8-ethyl-7-fluoro-3-hydroxy-1-naphthyl)-5-fluoro-9-(6-hydroxy-6-methyl-1,4-oxazepan-4-yl)-2-methyl-pyrazolo[4,3-f]quinazolin-7-yl]oxymethyl]cyclopropyl]methyl]azetidine-3-carbonitrile]	≤ 10 nM	≤ 10 nM
CCc1c(F)ccc2cc(O)cc(-c3c(F)c4nc(OCC5(CN(CC)CC)CC5)nc(N5CCOCC(C)(O)C5)c4c4cn(C)nc34)c12 (centres unmarked) [Example 166, -[7-[[1-(diethylaminomethyl)cyclopropyl]methoxy]-4-[8-ethyl-7-fluoro-3-(methoxymethoxy)-1-naphthyl]-5-fluoro-2-methyl-pyrazolo[4,3-f]quinazolin-9-yl]-6-methyl-1,4-oxazepan-6-ol]	≤ 10 nM	≤ 10 nM
CCC1CCCc2cc(O)cc(-c3cc4nc(OC[C@@]56CCCN5C[C@H](F)C6)nc(N5CCCOCC5)c4c4cn(C)nc34)c21 (stereo partly drawn) [Example 66, 1-ethyl-8-[2-methyl-9-(1,4-oxazepan-4-yl)-7-[[(2R,8S)-2-fluoro-1,2,3,5,6,7-hexahydropyrrolizin-8-yl]methoxy]pyrazolo[4,3-f]quinazolin-4-yl]tetralin-6-ol]	10 to 100 nM	10 to 100 nM
CCc1c(F)ccc2cc(O)cc(-c3c(C)c4nc(OC[C@@]56CCCN5C[C@H](F)C6)nc(N5CCCn6nc(C(=O)N(C)C)c(F)c6C5)c4c4cn(C)nc34)c12 [Example 180, 5-[4-(8-ethyl-7-fluoro-3-hydroxy-1-naphthyl)-2,5-dimethyl-7-[[(2R,8S)-2-fluoro-1,2,3,5,6,7-hexahydropyrrolizin-8-yl]methoxy]pyrazolo[4,3-f]quinazolin-9-yl]-3-fluoro-N,N-dimethyl-4,6,7,8-tetrahydropyrazolo[1,5-a][1,4]diazepine-2-carboxamide]	≤ 10 nM	≤ 10 nM
C#Cc1c(F)ccc2cc(O)cc(-c3cc4nc(OC[C@@]56CCCN5C[C@H](F)C6)nc(N5CC6CNCC6C5)c4c4cn(C)nc34)c12 (stereo partly drawn) [Example 34, 4-[9-(2,3,3a,4,6,6a-hexahydro-1H-pyrrolo[3,4-c]pyrrol-5-yl)-2-methyl-7-[[(2R,8S)-2-fluoro-1,2,3,5,6,7-hexahydropyrrolizin-8-yl]methoxy]pyrazolo[4,3-f]quinazolin-4-yl]-5-ethynyl-6-fluoro-naphthalen-2-ol]	≤ 10 nM	100 to 10000 nM
CCc1c(F)ccc2cc(O)cc(-c3cc4nc(OC[C@@]56CCCN5C[C@H](F)C6)nc(N5CCCn6nc(C(=O)N(C)C)c(F)c6C5)c4c4cn(C)nc34)c12 [Example 103]	≤ 10 nM	≤ 10 nM
CCc1c(F)ccc2cc(O)cc(-c3c(F)c4nc(OCC5(C#N)CCOC5)nc(N5CCCNC(=O)C5)c4c4cn(C)nc34)c12 (centres unmarked) [Example 244, 3-[[4-(8-ethyl-7-fluoro-3-hydroxy-1-naphthyl)-5-fluoro-2-methyl-9-(3-oxo-1,4-diazepan-1-yl)pyrazolo[4,3-f]quinazolin-7-yl]oxymethyl]tetrahydrofuran-3-carbonitrile]	100 to 10000 nM	100 to 10000 nM
CCc1c(F)ccc2cc(O)cc(-c3cc4nc(OC[C@@]56CCCN5C[C@H](F)C6)nc(N5CCCC6(COC6)C5)c4c4cn(C)nc34)c12 [Example 201, 5-ethyl-6-fluoro-4-[2-methyl-9-(2-oxa-8-azaspiro[3.5]nonan-8-yl)-7-[[(2R,8S)-2-fluoro-1,2,3,5,6,7-hexahydropyrrolizin-8-yl]methoxy]pyrazolo[4,3-f]quinazolin-4-yl]naphthalen-2-ol]	≤ 10 nM	100 to 10000 nM
CCc1c(F)ccc2cc(O)cc(-c3cc4nc(OC[C@@]56CCCN5C[C@H](F)C6)nc(N5CCCn6nc(C(=O)N(C)C)cc6C5)c4c4cn(C)nc34)c12 [Example 22, 5-[4-(8-ethyl-7-fluoro-3-hydroxy-1-naphthyl)-2-methyl-7-[[(2R,8S)-2-fluoro-1,2,3,5,6,7-hexahydropyrrolizin-8-yl]methoxy]pyrazolo[4,3-f]quinazolin-9-yl]-N,N-dimethyl-4,6,7,8-tetrahydropyrazolo[1,5-a][1,4-]diazepine-2-carboxamide]	≤ 10 nM	≤ 10 nM
CCc1c(F)ccc2cc(O)cc(-c3cc4nc(OCC56CCCN5CCC6)nc(N5CCCOCC5)c4c4[nH]ncc34)c12 [Example 47, 5-ethyl-6-fluoro-4-[7-(1,2,3,5,6,7-hexahydropyrrolizin-8-ylmethoxy)-9-(1,4-oxazepan-4-yl)-1H-pyrazolo[3,4-f]quinazolin-4-yl]naphthalen-2-ol]	100 to 10000 nM	100 to 10000 nM
CCc1c(F)ccc2cc(O)cc(-c3cc4nc(OC[C@@]56CCCN5C[C@H](F)C6)nc(N5CCCn6nc(C)cc6C5)c4c4cn(C)nc34)c12 [Example 72]	≤ 10 nM	10 to 100 nM
CCc1c(F)ccc2cc(O)cc(-c3cc4nc(OC[C@@]56CCCN5C[C@H](F)C6)nc(N5CCCn6nc(CO)cc6C5)c4c4cn(C)nc34)c12 [Example 94, 5-ethyl-6-fluoro-4-[9-[2-(hydroxymethyl)-4,6,7,8-tetrahydropyrazolo[1,5-a][1,4]diazepin-5-yl]-2-methyl-7-[[(2R,8S)-2-fluoro-1,2,3,5,6,7-hexahydropyrrolizin-8-yl]methoxy]pyrazolo[4,3-f]quinazolin-4-yl]naphthalen-2-ol]	≤ 10 nM	≤ 10 nM
CCc1c(F)ccc2cc(O)cc(-c3c(F)c4nc(OCC5(CN6CC7CCC(C6)O7)CC5)nc(N5CCOCC(C)(O)C5)c4c4cn(C)nc34)c12 (centres unmarked) [Example 217, 4-[4-(8-ethyl-7-fluoro-3-hydroxy-1-naphthyl)-5-fluoro-2-methyl-7-[[1-(8-oxa-3-azabicyclo[3.2.1]octan-3-ylmethyl)cyclopropyl]methoxy]pyrazolo[4,3-f]quinazolin-9-yl]-6-methyl-1,4-oxazepan-6-ol]	≤ 10 nM	≤ 10 nM
